Assay results published in PMC3303619, “In Situ Absorption in Rat Intestinal Tract of Solid Dispersion of Annonaceous Acetogenins” (Gastroenterology Research and Practice, 2012).
Converted amounts (≈) assume the structure as drawn.

Tests used:
[1] = tested on: intestinal loop in rats; experiment: Single-pass intestinal perfusion (SPIP) in rats at different perfusate concentrations; type: in vivo, Sprague-Dawley rats; details: values are P app × 10^3, mean ± SD, n = 6
Protocol: We used male Sprague-Dawley rats weighing 250 ± 20 g for all perfusion studies. The drug solution was prepared by dispersing the ACGs-SD in the K-R buffer solution and installed in the cylinder, which was incubated in at 37°C water bath to maintain temperature.
The in situ SPIP experiment was conducted according to the previously published reports. Firstly, six male Sprague-Dawley rats were placed in respective cages and fasted overnight before the experiment with free access to water. Rats were anesthetized with an intraperitoneal injection of pentobarbital sodium (40 mg/Kg body weight, i.p. injection), restrained in a supine position, and kept at a body temperature of 37°C using infrared lamps.
Bile duct was ligated and the intestinal content was immediately washed away with 37°C saline solution at a flow rate of 5 mL/min, by cannulating polyethylene tubings (3.2 mm diameter) using a peristaltic pump (BT00-100 M, Baoding Longer Precision Pump Co., Ltd., China). The isolated segment, duodenum, jejunum, ileum, and colon were rinsed with physiological saline to clean any residual debris until the out flowing became colorless. Then, the intestinal loop was made by ligating both ends of the intestinal loop from 4 cm below the bile duct opening to a segment above the ileocecum of small intestine of anesthetized rats. Care was taken to handle the small intestine gently in order to maintain an intact blood supply. The whole surgical area was covered with a piece of sterilized gauze wetted with physiological saline solution.
ACGs-SD was dissolved in K-R buffer solution (0.35 g KCl, 1.37 g NaHCO3, 7.8 g NaCl, 0.22 g NaH2PO4, 0.02 g MgCl2, and glucose in 1.48 g/1000 mL purified water, pH 6.5) at a concentration of 200 μg/mL, 300 μg/mL, 500 μg/mL of ACGs, and the solution was administered to the loop via the polyethylene tubing inserted into the loop. At the start of the study, the perfusion buffer containing sample solution was first perfused at a flow rate of 5 mL/min to ensure filling the segment rapidly, and the time was set to zero with the immediate start of the perfusion and the solution volume in circulation was recorded as the 0 min volume. After 10 min, when steady-state condition was achieved, the flow rate was adjusted to 0.2 mL/min, and the outlet perfused samples were collected at time intervals (5, 10, 15, 30, 60, 90, 120 min) for 2 h. During 2 h perfusion period, at each time period, assemble the outlet solution. At the end of the experiment, the length of perfused intestinal segment was measured without stretching.
(§1) The effective permeability (K a, P app) of the drug disappearing from the intestinal lumen during the intestinal perfusion was calculated by the steady-state equation: (1) Ka =(1−CoutQout/CinQin)Q/VPapp=[− Qin·ln (CoutQout/CinQin)]/2πrL where the radius of the gut lumen was represented by r, its length by L, and the perfusate flow rate by Q (mL/min). V presents the volume of the tested intestinal. The fraction C out/C in represents the concentration of the drμg leaving the perfused segment (C out) normalized to the concentration entering the segment (C in). The C out values were corrected for net water flux by the gravimetric method.
(§2) Once the intestinal segment reached steady state, subsequent values of C out/C in were used to calculate P app. P app represents the permeability of the compound (cm/s) as determined by the disappearance of the compound from the intestinal lumen. Steady state was assumed to be reached when C out/C in reached a constant value, as determined by direct observation of the data.

[2] = Stability of sample solution during storing and preparation (freeze-thaw, room temperature, stock solution); type: physicochemical; details: for Accuracy (mean ± SD)%, Freeze-thaw (three cycles): three freeze (−20°C) and thaw (room temperature) cycles, compared to nominal concentration
Protocol: The stability of sample solution was also tested at room temperature and 4°C, respectively, for 24 h. For freeze-thaw stability testing, the samples were determined after three freeze (−20°C) and thaw (room temperature) cycles, and the concentration was compared to their nominal concentration. For the short-term stability, the samples (three replicates at each QC concentration) were extracted and placed at room temperature for 24 h and then injected into the HPLC system for analysis.
Stock solutions of ACGs were stable for at least 30 days when stored at 4°C. No significant change was found after three freeze-thaw cycles and stored at room temperature for 24 h (Table 1).

[3] = Stability of ACGs in K-R buffer solution; type: physicochemical; details: ACGs-SD in K-R buffer, 37°C, n = 3
Protocol: Exact amount of ACGs-SD was dissolved in K-R buffer solution at 37°C in water bath. Chermolin-1, annonacin, squamocin, and annonin-VI were determined at 0, 30, 60, 90, and 120 min to analysis the stability of ACGs in K-R buffer solution.

[4] = tested on: K562 cells; parameters: method as in PMID 16310807; details: cited from earlier work
[5] = tested on: duodenum, jejunum, ileum, and colon segment; experiment: SPIP in different intestinal segments; type: in vivo, Sprague-Dawley rats; details: 300 μg/mL, values are P app × 10^3, mean ± SD, n = 6
Excerpt: The study followed the method described in Li et al. and Dahan and Amidon. Each 10 cm long intestinal segment was isolated as follows: duodenum segment beginning from 1 cm distal to pylorus, jejunum segment beginning from 15 cm away from pylorus, ileum segment beginning at the site 20 cm upwards caecum, while segment colon beginning at the site 2 cm distal to caecum. The above segments were carefully cannulated and ligated with both the ends. Then, each segment was perfused with solution containing different mass of ACGs.
as §1, §2

[6] = Solubility studies in distilled water; type: physicochemical; details: 37 °C, thermodynamic from solid, component from ACGs solid dispersion (PEG 4000), 37 ± 0.5°C
Protocol: Solubility studies were conducted by placing an excess amount of ACGs (approximately 15 mg) and ACG-solid dispersion in 10 mL distilled water, and the mixture was heated at 37 ± 0.5°C in a water bath to facilitate the solubilization using a vortex mixer. Mixtures were equilibrated at 37 ± 0.5°C for 72 h in a water bath. The equilibrated samples were centrifuged at 3000 rpm for 15 min to remove the undissolved material. The supernatant was determined by HPLC.

[7] = tested on: T24 bladder cancer cells; parameters: method as in PMID 16154156; details: cytotoxicity in a Bax- and caspase-3-related pathway; cited from earlier work
[8] = tested on: complex I; parameters: method as in PMID 8037664; details: mammalian mitochondria; steady-state and nonsteady-state conditions; cited from earlier work
[9] = ACGs-SD perfusate concentration 200 μg · mL^−1
[10] = ACGs-SD perfusate concentration 300 μg · mL^−1
[11] = ACGs-SD perfusate concentration 500 μg · mL^−1

Structure (SMILES)	P app × 10^3 [1, 9]	P app × 10^3 [1, 10]	P app × 10^3 [1, 11]	Accuracy (mean ± SD)%, Samples at room temperature for 24 h [2]	Accuracy (mean ± SD)%, Freeze-thaw (three cycles) [2]	Stability in K-R buffer solution, remaining ([3]; time 0 h)	Stability in K-R buffer solution, remaining ([3]; time 0.5 h)	Stability in K-R buffer solution, remaining ([3]; time 1 h)	Stability in K-R buffer solution, remaining ([3]; time 2 h)	Effect on proliferation of K562 cells [4]	P app × 10^3 ([5]; Duodenum)	P app × 10^3 ([5]; Ileum)	P app × 10^3 ([5]; Jejunum)	P app × 10^3 ([5]; colon)	solubility at 72 h [6]	Effect on cell cycle of T24 bladder cancer cells [7]	Effect on proton pumping function of complex I [8]
CCCCCC[C@H](O)CCC[C@H](O)[C@H]1CC[C@H]([C@H]2CC[C@H]([C@H](O)CCCCCCCCCCCCC3=C[C@H](C)OC3=O)O2)O1 [Squamocin, squamocin]	0.96 ± 0.28 cm · s^−1	0.96 ± 0.27 cm · s^−1	0.93 ± 0.32 cm · s^−1	101.3 ± 6.2%	101.6 ± 4.2%	100%	100.51%	99.86%	98.58%	inhibit the proliferation of K562 cells via G2/M arrest	1.24 ± 0.27 cm · s^−1	1.14 ± 0.31 cm · s^−1	1.30 ± 0.27 cm · s^−1	1.03 ± 0.19 cm · s^−1	1080 µg/mL (≈ 1740 µM)	–	–
CCCCCCCCCCCC[C@@H](O)[C@H]1CC[C@H]([C@H](O)CCCC[C@H](O)CCCCC[C@@H](O)CC2=CC(C)OC2=O)O1 (some centres unmarked) [Annonacin, annonacin]	1.29 ± 0.12 cm · s^−1	0.92 ± 0.23 cm · s^−1	0.69 ± 0.31 cm · s^−1	96.3 ± 2.1%	96.0 ± 1.0%	100%	98.63%	98.59%	96.16%	–	1.36 ± 0.34 cm · s^−1	1.17 ± 0.49 cm · s^−1	1.38 ± 0.82 cm · s^−1	0.95 ± 0.45 cm · s^−1	213 µg/mL (≈ 357 µM)	arrest T24 bladder cancer cells at the G1 phase	–
CCCCCCCCCC[C@H](O)[C@H]1CC[C@H]([C@H]2CC[C@H]([C@H](O)CCCCCCCCCC[C@@H](O)CC3=C[C@H](C)OC3=O)O2)O1 [Annonin-VI, annonin-VI]	0.75 ± 0.37 cm · s^−1	0.75 ± 0.21 cm · s^−1	0.79 ± 0.30 cm · s^−1	98.3 ± 2.1%	99.3 ± 5.0%	100%	95.64%	99.59%	–	–	2.28 ± 0.29 cm · s^−1	1.26 ± 0.30 cm · s^−1	1.87 ± 0.29 cm · s^−1	1.10 ± 0.45 cm · s^−1	250 µg/mL (≈ 401 µM)	–	inhibited the proton pumping function of complex I
